Tests used:
Assay type in all cases: functional
[1] = organism: Oryctolagus cuniculus; test: Inhibitory activity against PAF (4e-10 M) induced aggregation of rabbit platelet at 3E-5 M concentration
[2] = organism: Oryctolagus cuniculus; test: Inhibitory activity against PAF (4e-10 M) induced aggregation of rabbit platelet at 1.5E-5 M concentration
[3] = organism: Oryctolagus cuniculus; test: Inhibitory concentration against PAF (8E-10M) induced aggregation of rabbit platelet at 2.1E-4 M concentration
[4] = organism: Oryctolagus cuniculus; test: Inhibitory activity against PAF (4e-10 M) induced aggregation of rabbit platelet at 1.5E-6 M concentration
[5] = organism: Oryctolagus cuniculus; test: Inhibitory activity against PAF (4e-10 M) induced aggregation of rabbit platelet at 2.1E-4 M concentration
[6] = organism: Oryctolagus cuniculus; test: Inhibitory activity against PAF (4e-10 M) induced aggregation of rabbit platelet at 7.5E-5 M concentration
[7] = organism: Oryctolagus cuniculus; test: Inhibitory activity against PAF (8E-10M) induced aggregation of rabbit platelet at 2.1E-4 M concentration

CCCCC/C=C\C/C=C\C/C=C\C/C=C\CCCC(=O)O [ARACHIDONIC ACID]
Inhibition [1]: 24% | Inhibition [2]: 6% | IC50 [3]: ~60 µM | Inhibition [4]: 0% | Inhibition [5]: 100% | Inhibition [6]: 61% | Inhibition [7]: 100%
